Assay results as given in PubChem BioAssay AID2060621 (Molecular Pharmacology Branch, DTP, NCI, 2025).

Tested on: 324938-238-R-J1-PDC complex spheroids viability
Test: Anticancer human tumor 324938-238-R-J1-PDC patient-derived bladder carcinoma cell line growth inhibition [CLK]
Conditions: for IC50: curve of first compound; for viability, T/C: stronger effect = lower value; active means viability on the fitted dose curve at most 10% of control; inactive means the rest
Outline: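 Patient-derived tumor cells grown as complex spheroids with HUVEC endothelial cells and mesenchymal stem cells, treated with drug combinations. Concentrations descend in half-log steps from near clinical Cmax, or from 10 microM if Cmax unknown.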

[1] = second compound 0.0316 µM, first compound 0.0316 µM
[2] = second compound 0.0316 µM, first compound 0.1 µM
[3] = second compound 0.0316 µM, first compound 0.316 µM
[4] = second compound 0.0316 µM, first compound 1 µM
[5] = second compound 0.0316 µM, first compound 3.16 µM
[6] = second compound 0.0316 µM, first compound 10 µM
[7] = second compound 0.1 µM, first compound 0.0316 µM
[8] = second compound 0.1 µM, first compound 0.1 µM
[9] = second compound 0.1 µM, first compound 0.316 µM
[10] = second compound 0.1 µM, first compound 1 µM
[11] = second compound 0.1 µM, first compound 3.16 µM
[12] = second compound 0.1 µM, first compound 10 µM
[13] = second compound 0.316 µM, first compound 0.0316 µM
[14] = second compound 0.316 µM, first compound 0.1 µM
[15] = second compound 0.316 µM, first compound 0.316 µM
[16] = second compound 0.316 µM, first compound 1 µM
[17] = second compound 0.316 µM, first compound 3.16 µM
[18] = second compound 0.316 µM, first compound 10 µM
[19] = second compound 1 µM, first compound 0.0316 µM
[20] = second compound 1 µM, first compound 0.1 µM
[21] = second compound 1 µM, first compound 0.316 µM
[22] = second compound 1 µM, first compound 1 µM
[23] = second compound 1 µM, first compound 3.16 µM
[24] = second compound 1 µM, first compound 10 µM
[25] = second compound 3.16 µM, first compound 0.0316 µM
[26] = second compound 3.16 µM, first compound 0.1 µM
[27] = second compound 3.16 µM, first compound 0.316 µM
[28] = second compound 3.16 µM, first compound 1 µM
[29] = second compound 3.16 µM, first compound 3.16 µM
[30] = second compound 3.16 µM, first compound 10 µM
[31] = second compound 10 µM, first compound 0.0316 µM
[32] = second compound 10 µM, first compound 0.1 µM
[33] = second compound 10 µM, first compound 0.316 µM
[34] = second compound 10 µM, first compound 1 µM
[35] = second compound 10 µM, first compound 3.16 µM
[36] = second compound 10 µM, first compound 10 µM
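Further: viability read after seven days of drug exposure.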
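Wherever viability, T/C is given: 100% = DMSO vehicle control wells.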

CCCS(=O)(=O)Nc1ccc(F)c(C(=O)c2c[nH]c3ncc(-c4ccc(Cl)cc4)cc23)c1F + CNC(=O)c1ccc(Nc2nc(OC3CCCC3)c3c(-c4ccc5nc(C)oc5c4)c[nH]c3n2)c(OC)c1
8550 nM: IC50 (second compound 0.0316 µM)
inactive: viability, T/C [1] 89.8% | viability, T/C [2] 89.2% | viability, T/C [3] 92.1% | viability, T/C [4] 103% | viability, T/C [5] 98.6% | viability, T/C [6] 43% | viability, T/C [7] 31.2% | viability, T/C [8] 32.5% | viability, T/C [9] 29.6% | viability, T/C [10] 29.1% | viability, T/C [11] 35.8% | viability, T/C [12] 33.8% | viability, T/C [13] 19.8% | viability, T/C [14] 18% | viability, T/C [15] 20.9% | viability, T/C [16] 19.3% | viability, T/C [17] 24.4% | viability, T/C [18] 26.1% | viability, T/C [19] 25.1% | viability, T/C [20] 15.8% | viability, T/C [21] 18.2% | viability, T/C [22] 22% | viability, T/C [23] 19.2% | viability, T/C [24] 18.1% | viability, T/C [25] 15.2% | viability, T/C [26] 15.8% | viability, T/C [27] 19.3% | viability, T/C [28] 19.1% | viability, T/C [29] 22.4% | viability, T/C [30] 15.5% | viability, T/C [31] 17.5% | viability, T/C [32] 18.8% | viability, T/C [33] 17.4% | viability, T/C [34] 18.3% | viability, T/C [35] 23.9% | viability, T/C [36] 17.2%
< 31.6 nM: IC50 (second compound 0.1 µM) | IC50 (second compound 0.316 µM) | IC50 (second compound 1 µM) | IC50 (second compound 3.16 µM) | IC50 (second compound 10 µM)

COC1C=CCC(C)C(C)S(=O)(=O)NC(=O)c2ccc3c(c2)N(CC2CCC21)CC1(CCCc2cc(Cl)ccc21)CO3 (centres undefined) + CNC(=O)c1ccc(Nc2nc(OC3CCCC3)c3c(-c4ccc5nc(C)oc5c4)c[nH]c3n2)c(OC)c1
active: viability, T/C [17] 10.7% | viability, T/C [18] 7.76% | viability, T/C [23] 11.3% | viability, T/C [24] 7.89% | viability, T/C [30] 8.28%
inactive: viability, T/C [1] 89.6% | viability, T/C [2] 79.6% | viability, T/C [3] 32.8% | viability, T/C [4] 21.8% | viability, T/C [5] 15.3% | viability, T/C [6] 7.03% | viability, T/C [7] 31.7% | viability, T/C [8] 27.9% | viability, T/C [9] 24.4% | viability, T/C [10] 15.4% | viability, T/C [11] 22.5% | viability, T/C [12] 8.36% | viability, T/C [13] 18% | viability, T/C [14] 15.1% | viability, T/C [15] 12.9% | viability, T/C [16] 12.1% | viability, T/C [19] 15.1% | viability, T/C [20] 13.3% | viability, T/C [21] 11.8% | viability, T/C [22] 11.2% | viability, T/C [25] 16.1% | viability, T/C [26] 13.2% | viability, T/C [27] 13.1% | viability, T/C [28] 10.6% | viability, T/C [29] 11.4% | viability, T/C [31] 14.7% | viability, T/C [32] 15% | viability, T/C [33] 15% | viability, T/C [34] 10.7% | viability, T/C [35] 11.6% | viability, T/C [36] 9.83%
< 31.6 nM: IC50 (second compound 0.1 µM) | IC50 (second compound 0.316 µM) | IC50 (second compound 1 µM) | IC50 (second compound 3.16 µM) | IC50 (second compound 10 µM)
210 nM: IC50 (second compound 0.0316 µM)
